Results published in patent US9629942B2, “Limus-coated medical devices” (Innora GmbH, priority 2010, dated 2017).

Experiments:
[1] = Stability of sirolimus on a balloon catheter; type: physicochemical; details: at the dose level applied
Description: Balloons for percutaneous transluminal coronary angioplasty (Cordis Fire Star catheters, Cordis Corp., USA) were coated either with sirolimus alone or combined with different amounts of BHT. Coated balloons were tested in respect of sirolimus loss during the passage through a hemostatic valve, Medtronic Launcher JL 3.5 6F guiding catheter, and one minute in stirred blood (37° C.).

[2] = test system: neointimal proliferation; experiment: Inhibition of neointimal proliferation; type: in vivo; details: BHT without sirolimus, at the dose level applied

Cc1cc(C(C)(C)C)c(O)c(C(C)(C)C)c1 [BHT, butylated hydroxytoluene]
Effect of BHT on stability of sirolimus on a balloon catheter [1]: does not significantly increase the stability of sirolimus | Inhibition of neointimal proliferation [2]: does not inhibit neointimal proliferation
